Assays:
[1] = biological target: T1, Acyl-CoA:cholesterol acyltransferase (Oryctolagus cuniculus) (UniProt Q95214); assay: Inhibition of ACAT in Albino rabbit intestinal mucosa at 10 uM
T1 sequence (whole entry): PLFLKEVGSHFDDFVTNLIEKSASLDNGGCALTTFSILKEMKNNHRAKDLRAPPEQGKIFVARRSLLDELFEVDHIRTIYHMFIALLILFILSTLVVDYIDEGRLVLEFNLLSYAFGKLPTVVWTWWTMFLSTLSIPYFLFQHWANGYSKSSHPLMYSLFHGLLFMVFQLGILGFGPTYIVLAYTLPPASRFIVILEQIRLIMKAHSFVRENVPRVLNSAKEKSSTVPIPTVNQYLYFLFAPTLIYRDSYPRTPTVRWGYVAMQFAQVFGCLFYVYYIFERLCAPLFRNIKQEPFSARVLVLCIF

[2] = biological target: T2, Acyl-CoA:cholesterol acyltransferase (Oryctolagus cuniculus, UniProt Q95214); assay: Inhibition of ACAT in Albino rabbit intestinal mucosa
T2 sequence (Q95214 whole entry): T1 sequence (whole entry)

SMILES	inhibition [1]	IC50 [2]
CC[C@@H](N=[N+]=[N-])[C@@H](O)[C@]1(Br)C(=O)N([C@@H](C)c2ccccc2)[C@H]1c1ccccc1	65%	
CC[C@H](C)C(=O)O[C@H]1C[C@@H](C)C=C2C=C[C@H](C)[C@H](CC[C@@H]3C[C@@H](O)CC(=O)O3)[C@H]21 [LOVASTATIN]		16.8 µM
CC[C@H](N=[N+]=[N-])[C@H](O)[C@]1(Br)C(=O)N([C@@H](C)c2ccccc2)[C@H]1c1ccccc1	60%	
